The values below come from patent publication US20100056520A1, “FORMULATIONS OF PHOSPHOLIPASE ENZYME INHIBITORS” (priority 2006, published 2010).

Series [1] can be described thus: Solubility in 2% Tween 80/0.5% methylcellulose vehicle. It counts as physicochemical. The settings on record: for solubility: 2% Tween 80/0.5% methylcellulose vehicle, aqueous with cosolvent or surfactant or cyclodextrin, read-out: solubility in 2% Tween 80/0.5% methylcellulose (MC) vehicle. An excerpt:
(§1) Based on the animal data and solubility in pharmaceutical acceptable excipients, formulation development for first in human studies was undertaken based on this formulation.

Series [2] is described as follows: Solubility measured at room temperature in water, acid and basic conditions (HPLC). It counts as physicochemical. The method, then: The solubility of 4-(3-{5-chloro-1-(diphenylmethyl)-2-[2-({[2-(trifluoromethyl)benzyl]sulfonyl}amino)ethyl]-1H-indol-3-yl}propyl)benzoic acid was measured at room temperature in water, acid and basic conditions.
The solubility of 4-(3-{5-chloro-1-(diphenylmethyl)-2-[2-({[2-(trifluoromethoxy)benzyl]sulfonyl}amino)ethyl]-1H-indol-3-yl}propyl)benzoic acid was measured at room temperature in water, acid and basic conditions.
The solubility of 4-(3-{5-chloro-1-(diphenylmethyl)-2-[2-({[2-fluoro-6-(trifluoromethyl)benzyl]sulfonyl}amino)ethyl]-1H-indol-3-yl}propyl)benzoic acid was measured at room temperature in water, acid and basic conditions.

Series [3] is described as follows: Rat oral absorption/bioavailability after single oral dose of 25 mg/kg. It counts as in vivo, rats. The settings on record: for oral exposure with addition of 2% Tween 80: 2% Tween 80/0.5% MC vehicle; for bioavailability: rat, in vivo, rats, read-out: estimated bioavailability; for bioavailability / oral absorption in rats: single oral dose of 25 mg/kg in 2% Tween/0.5% MC.
Excerpt: as §1

Series [4] relates to carrageenan-induced paw edema. The series can be described thus: Rat carrageenan-induced paw edema (CPE) study. It counts as in vivo. The method, then: Data from a rat carrageenan-induced paw edema (CPE) study indicated the minimum efficacious exposure of 4-(3-{5-chloro-1-(diphenylmethyl)-2-[2-({[2-(trifluoromethyl)benzyl]sulfonyl}amino)ethyl]-1H-indol-3-yl}propyl)benzoic acid was 1360 ng*hr/ml.

For a further series, the system named is ApoE Mice. Briefly: Minimum efficacious exposure in ApoE mice. It counts as in vivo.

≈ marks a conversion by molar mass, not a printed value. A value given as a limit tells only on which side of the number the result lay.

As a reminder, the bioavailability is dose-corrected exposure relative to a reference, in per cent. Take `O=C(O)c1ccc(CCCc2c(CCNS(=O)(=O)Cc3c(F)cccc3C(F)(F)F)n(C(c3ccccc3)c3ccccc3)c3ccc(Cl)cc23)cc1` [4-(3-{5-chloro-1-(diphenylmethyl)-2-[2-({[2-fluoro-6-(trifluoromethyl)benzyl]sulfonyl}amino)ethyl]-1H-indol-3-yl}propyl)benzoic acid]: the solubility in series [1] worked out at 115 µg/mL (≈ 151 µM). Moreover, the solubility in series [2] (water, acid and basic conditions, aqueous buffer, below the HPLC detection limit, read-out: intrinsic solubility over the pH range of 1 to 11) was below 0.1 µg/mL. Also, in series [3], the “oral exposure with addition of 2% Tween 80” value is “did not afford adequate oral exposure”, the bioavailability is below 1% and the “oral absorption in rats” value is reported as “relatively low”.

For the compound `O=C(O)c1ccc(CCCc2c(CCNS(=O)(=O)Cc3ccccc3C(F)(F)F)n(C(c3ccccc3)c3ccccc3)c3ccc(Cl)cc23)cc1` [4-(3-{5-chloro-1-(diphenylmethyl)-2-[2-({[2-(trifluoromethyl)benzyl]sulfonyl}amino)ethyl]-1H-indol-3-yl}propyl)benzoic acid], the solubility in series [2] (aqueous solution (water, acid and basic conditions), aqueous buffer, below the HPLC detection limit, read-out: intrinsic solubility of the free acid) was below 0.031 µg/mL; in series [2] (aqueous solution (water, acid and basic conditions), aqueous buffer, read-out: solubility of the anion), 0.11 µg/mL (≈ 0.148 µM). Also, in series [4], the minimum efficacious exposure came to 1360 ng·h/mL.

In the case of `O=C(O)c1ccc(CCCc2c(CCNS(=O)(=O)Cc3ccccc3OC(F)(F)F)n(C(c3ccccc3)c3ccccc3)c3ccc(Cl)cc23)cc1` [4-(3-{5-chloro-1-(diphenylmethyl)-2-[2-({[2-(trifluoromethoxy)benzyl]sulfonyl}amino)ethyl]-1H-indol-3-yl}propyl)benzoic acid], in series [1], the “solubility enhancement by addition of 2% Tween 80” value is 23.490 fold, the “solubility in 2% Tween 80/0.5% methylcellulose (MC) vehicle” value was determined as 498 µg/mL (≈ 654 µM) and the solubility was found to be 496 µg/mL (≈ 652 µM). Besides, the solubility in series [2] (water, acid and basic conditions, water, acid and basic conditions, below the HPLC detection limit, read-out: intrinsic solubility in all conditions) is below 0.0212 µg/mL. The minimum efficacious exposure in the series on ApoE Mice stood at 2800 ng·h/mL. Further, in series [3], the “oral exposure with addition of 2% Tween 80” value is listed as “did not afford adequate oral exposure”, the bioavailability is around 1.8% and the “oral absorption in rats” value is recorded as “relatively low”.
